This is an account of results in patent US11859252B2, “Diagnostic and therapeutic methods for cancer” (Genentech, Inc., priority 2017, dated 2024).

Data set [1] deals with pMEK, pERK, pRSK, pAKT. Briefly: Immunoblot of pathway markers after compound treatment. Conditions: A549. The data set is classed as cell-based. The procedure:
(§1) Cells lysed in lysis buffer (0.5% NP40, 20 mM Tris, pH 7.5, 137 mM NaCl, 10% glycerol, 1 mM EDTA) plus protease inhibitor mixture-complete mini (Roche Applied Science, 11836170001) and phosphatase inhibitor mix (Thermo, 78426). Lysates were centrifuged at 15,000 rpm for 10 minutes and the protein concentration determined using BCA (Thermo, 23227). Equal amounts of protein were subjected to SDS-PAGE NuPAGE 4-12% Bis-Tris Gel (Novex, WG-1403) and transferred to nitrocellulose membrane (BioRad, 170-4159). After blocking in blocking buffer (Li-Cor, 927-40000), membranes were incubated with the indicated primary antibodies and analyzed either by the addition of secondary antibodies IRDye 680LT Goat anti-Mouse IgG (H+L) (Li-Cor, 926-68050) or IRDye 800CW goat anti-Rabbit IgG (H+L) (Li-Cor, 926-32211). The membranes were visualized on the LiCor Odyssey CLx Scanner.
A general note: In western blotting, separated proteins are transferred to a membrane and probed.

Data set [2] has as its system DUSP6 and SPRY4. Briefly: RNA sequencing of MAPK transcriptional targets. The data set is classed as cell-based. Conditions: 0.1 μM AZ-628 combined with cobimetinib; six hours; four KRAS mutant lung cancer cell lines; FIG. 2C. As to the method:
Cells were seeded overnight and treated with AZ-628 and cobimetinib either singly (0.1 μM) or in combination (0.1 μM each) for 6 hours. Control cells were treated with DMSO (0.2% final concentration). Total RNA was extracted as per manufacturer's protocol using RNEasy mini kits with on-column DNAse digestion (Qiagen #74106 and #79254). Quality control of samples was done to determine RNA quantity and quality prior to their processing by RNA-seq. The concentration of RNA samples was determined using NanoDrop 8000 (Thermo Scientific) and the integrity of RNA was determined by Fragment Analyzer (Advanced Analytical Technologies). 0.5 μg of total RNA was used as an input material for library preparation using TruSeq RNA Sample Preparation Kit v2 (Illumina). Size of the libraries was confirmed using 2200 TapeStation and High Sensitivity D1000 screen tape (Agilent Technologies) and their concentration was determined by qPCR based method using Library quantification kit (KAPA). The libraries were multiplexed and then sequenced on Illumina HiSeq2500 (Illumina) to generate 30M of single-end 50 base pair reads.
Reads were mapped to the hg19 genome using RefSeq gene models with the aligner GSNAP. […] Significance for linear model terms was determined by moderated t-tests as implemented in the limma software.

Data set [3] concerns A549 cells. Briefly: Apoptosis: cleaved PARP Western blot and Annexin V/propidium iodide flow cytometry. The data set is classed as cell-based. The settings on record: AZ-628 combined with cobimetinib; 48 hours; FIG. 2D-2E. As to the method:
as §1

The test system of data set [4] is A549 cells. Briefly: Clonogenic (colony growth) assay. The format is cell-based. The procedure: (§2) Cells were plated in duplicate in 6-well plates at 10,000 cells/well, allowed to attach overnight and treated for 8 days with the indicated compounds. Media with appropriate compounds was replenished every 72 hours. At 8 days cells were rinsed once with PBS, fixed and stained with crystal violet solution (Sigma Aldrich, HT90132) for 20 minutes and washed with water.

Data set [5] has as its system 322 cell lines (pancreas, lung, colorectal, skin, ovary and blood). Briefly: 322 cell line screen, AZ-628 and cobimetinib single agents and co-dilution. The format is cell-based. As to the method: (§3) Compounds were screened in nine-point dose response using a three-fold dilution. Cells were seeded into 384-well plates 24 hours prior to compound addition. Cells were then incubated with compound for 72 hours or 120 hours before assaying viability (CellTiter-Glo, Promega). Assays were performed in biological triplicate. Cells were incubated (37° C., 5% CO2) in RPMI-1640, 2.5% FBS (72 hour assay) or 5% FBS (120 hour assay), and 2 mM glutamine throughout the assay. The reported IC50 and mean viability metrics are as follows: IC50 is the dose at which the estimated inhibition is 50% relative to untreated wells (i.e., absolute IC50). Mean viability is equivalent to the area under the log-dose/viability curve divided by the total number of tested doses.
(§4) For combination synergy studies, cells were plated in 384-well plates (Corning) and treated with varying concentrations of compound, either alone or in combination for 72 hours. Cell viability was determined using CellTiter-Glo Luminescent Cell Viability Assay (Promega, G7573). Synergistic effects were determined using the Bliss independence analysis methods (Greco et al. Pharmacol. Rev. 47: 331-385, 1995; Chou and Talalay. Adv. Enzyme Regul. 22:27-55, 1984; Chou. Cancer Res. 70: 440-446, 2010; Bliss. Ann. Appl. Biol. 25: 31, 1939).

Data set [6] relates to SW48 isogenic cell line. Briefly: SW48 isogenic KRAS knock-in cells, crystal violet and pERK Western blot. The format is cell-based. The settings on record: AZ-628 starting at 0.1 μM, cobimetinib 250 nM; FIGS. 6F-6G. The procedure: as §2, §1
For data set [7], the system named is panel of 213 tumor cell lines. Briefly: 213 cell line panel, co-diluted combinations with pictilisib. The data set is classed as cell-based. Conditions: 3 days, FIG. 7A. The procedure:
as §3, §4

Data set [8] deals with NRAS mutant melanoma cell line. Briefly: Viability of NRAS mutant melanoma versus BRAF-V600E and wild-type lines. The data set is classed as cell-based. The procedure: Compounds were screened in nine-point dose response using a three-fold dilution. Cells were seeded into 384-well plates 24 hours prior to compound addition. Cells were then incubated with compound for 72 hours or 120 hours before assaying viability (CellTiter-Glo, Promega). Assays were performed in biological triplicate. […] Mean viability is equivalent to the area under the log-dose/viability curve divided by the total number of tested doses.

In data set [9] the test system is NCI-H2122 lung xenograft tumor. Briefly: NCI-H2122 lung xenograft tumor model.
Experimental: The formulations were mixed well by vortexing before dosing. Test articles were stored in a refrigerator set to maintain a temperature range of 4° C.-7° C.
Only animals that appeared to be healthy and that were free of obvious abnormalities were used for each study. Tumor volumes were determined using digital calipers (Fred V. Fowler Company, Inc.) using the formula (L×W×W)/2. […] Mice were weighed twice a week using a standard scale.

“Also recorded” adds a separate entry of the source.

As to `Cc1ccc(NC(=O)c2cccc(C(C)(C)C#N)c2)cc1Nc1ccc2ncn(C)c(=O)c2c1` [AZ-628], the “pMEK accumulation and signaling to ERK” value in data set [1] (AZ-628 combined with pictilisib, 24 hours, FIG. 7G) is “prevent the accumulation of pMEK and abrogate downstream signaling to ERK”. For the same compound, the pAKT levels result in [1] (AZ-628 in combination with cobimetinib, FIG. 2B) was “little observed impact on pAKT levels”. For the same compound, the “MAPK pathway output (pMEK, pERK, pRSK)” value in [1] (RAF inhibitor 0.1-10 μM with or without fixed dose cobimetinib, 24 hours, FIG. 2B) is recorded as “only in combination with cobimetinib effectively inhibited MAPK pathway output”. The “downregulation of DUSP6 and SPRY4” value in [2] is “downregulation of these genes was more profound than expected if the effect of combining the two single agents was merely additive”. The induction of apoptosis entry in data set [3] is reported as “significant induction of cell apoptosis; also recorded: increased cleaved PARP”. Besides, the “single-agent effect on cell growth” value in data set [4] (8-day clonogenic, 50-100 nM cobimetinib, 100 nM AZ-628) was “had little effect on cell growth on their own”. In data set [4] (8 days, crystal violet, FIG. 2F, 5E), the “synergy with cobimetinib in colony formation” value is given as “marked synergy”. Further, the “association of combination sensitivity with KRAS-G13D” value in data set [5] (AZ-628 and cobimetinib, FIGS. 6A-6C) was “significant association between sensitivity to the RAF plus MEK inhibitor combination and presence of the G13D mutation; also recorded: KRAS-G13D mutant cell lines are more sensitive to the combination of RAF and MEK inhibition”. In data set [5] (co-dilution with cobimetinib, 3 days, FIG. 5A), the “synergy score (positive Bliss excess) with cobimetinib by genotype” value was “Significantly higher synergy scores were observed in KRAS and NRAS mutant cell lines compared to either BRAF-V600 mutants or wild-type; also recorded: greater synergy in RAS mutant (G12/G13/Q61) cell lines, and a subset of RAS/RAF wild-type cell lines relative to BRAF-V600 cell lines”. Besides, the “synergy with cobimetinib by KRAS knock-in” value in data set [6] is “displayed greater synergy than KRAS-G12D and KRAS-G12C knock-in cells; also recorded: greater in KRAS-G13D mutant SW48 cells compared to KRAS-G12D or KRAS-G12C mutant SW48 cells”. Besides, in data set [7], the “synergy (positive Bliss excess) with pictilisib” value is “large general increased synergy in the AZ-628/pictilisib combination compared to the cobimetinib/pictilisib combination; also recorded: synergizes with pan-PI3K inhibitor, pictilisib (GDC-0941)”. The “effect on mean viability, NRAS mutant vs BRAF-V600E” value in [8] (FIG. 8A) is “approximately equivalent effects on mean viability”. Also, the “cell viability and 1050, NRAS mutant vs BRAF-V600E” value in [8] (separate study, FIGS. 8C and 8D) was “had an equivalent effect in NRAS mutant and BRAF-V600E mutant cell lines”. Moreover, the “tumor growth, combination with cobimetinib” value in [9] (NCI-H2122, AZ-628+GDC-0973, FIG. 3A) is “robust combination effect”. The “tolerability / body weight” value in data set [9] (NCI-H2122 xenograft mice, combination with cobimetinib, FIG. 3B) is “well tolerated in the mice, resulting in little or minimal changes in body weight post-treatment”.
